Measured values reported in patent US20240109865A1, “INDAZOLE COMPOUNDS AS KINASE INHIBITORS” (TYRA BIOSCIENCES, INC., priority 2020, published 2024).

Tests used:
Experiment in all cases: Kinase assay, binding constants (Kd), kinase-tagged T7 phage, qPCR
FGFR1 = FGFR1 (Homo sapiens (Human), UniProt P11362)
Outline: (§1)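 Using T7 phage lysates from BL21-derived E. coli, compounds at 0.9% final DMSO competed for kinase binding to ligand-bearing magnetic beads. After elution, qPCR measured remaining kinase, and Kds were fitted by non-linear least squares with the Hill slope fixed at −1.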

FGFR4 = FGFR4 (Homo sapiens (Human), UniProt P22455)
FGFR4, sequence (P22455 22-802): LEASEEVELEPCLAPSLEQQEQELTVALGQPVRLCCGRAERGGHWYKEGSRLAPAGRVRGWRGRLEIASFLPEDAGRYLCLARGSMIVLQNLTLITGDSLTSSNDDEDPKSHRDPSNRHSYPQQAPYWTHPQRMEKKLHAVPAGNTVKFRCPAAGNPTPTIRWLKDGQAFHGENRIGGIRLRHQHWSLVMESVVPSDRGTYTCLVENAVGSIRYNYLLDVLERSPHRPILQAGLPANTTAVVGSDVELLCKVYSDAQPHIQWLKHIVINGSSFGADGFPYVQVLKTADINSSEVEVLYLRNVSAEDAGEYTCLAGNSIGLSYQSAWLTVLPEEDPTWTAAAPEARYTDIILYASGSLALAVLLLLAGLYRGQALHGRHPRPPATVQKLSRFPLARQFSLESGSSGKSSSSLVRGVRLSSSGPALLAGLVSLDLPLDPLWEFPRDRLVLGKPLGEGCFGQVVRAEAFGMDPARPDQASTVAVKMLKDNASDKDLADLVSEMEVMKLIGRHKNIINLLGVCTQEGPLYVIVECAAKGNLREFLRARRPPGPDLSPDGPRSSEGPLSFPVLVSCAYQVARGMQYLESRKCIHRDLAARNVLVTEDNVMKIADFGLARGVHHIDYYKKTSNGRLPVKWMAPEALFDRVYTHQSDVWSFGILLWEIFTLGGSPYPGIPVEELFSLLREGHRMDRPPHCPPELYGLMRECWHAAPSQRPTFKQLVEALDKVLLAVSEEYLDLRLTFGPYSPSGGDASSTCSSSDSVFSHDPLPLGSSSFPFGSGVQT
Outline: as §1

FGFR2 = FGFR2 (Homo sapiens (Human), UniProt P21802)
FGFR2, sequence (P21802 22-821): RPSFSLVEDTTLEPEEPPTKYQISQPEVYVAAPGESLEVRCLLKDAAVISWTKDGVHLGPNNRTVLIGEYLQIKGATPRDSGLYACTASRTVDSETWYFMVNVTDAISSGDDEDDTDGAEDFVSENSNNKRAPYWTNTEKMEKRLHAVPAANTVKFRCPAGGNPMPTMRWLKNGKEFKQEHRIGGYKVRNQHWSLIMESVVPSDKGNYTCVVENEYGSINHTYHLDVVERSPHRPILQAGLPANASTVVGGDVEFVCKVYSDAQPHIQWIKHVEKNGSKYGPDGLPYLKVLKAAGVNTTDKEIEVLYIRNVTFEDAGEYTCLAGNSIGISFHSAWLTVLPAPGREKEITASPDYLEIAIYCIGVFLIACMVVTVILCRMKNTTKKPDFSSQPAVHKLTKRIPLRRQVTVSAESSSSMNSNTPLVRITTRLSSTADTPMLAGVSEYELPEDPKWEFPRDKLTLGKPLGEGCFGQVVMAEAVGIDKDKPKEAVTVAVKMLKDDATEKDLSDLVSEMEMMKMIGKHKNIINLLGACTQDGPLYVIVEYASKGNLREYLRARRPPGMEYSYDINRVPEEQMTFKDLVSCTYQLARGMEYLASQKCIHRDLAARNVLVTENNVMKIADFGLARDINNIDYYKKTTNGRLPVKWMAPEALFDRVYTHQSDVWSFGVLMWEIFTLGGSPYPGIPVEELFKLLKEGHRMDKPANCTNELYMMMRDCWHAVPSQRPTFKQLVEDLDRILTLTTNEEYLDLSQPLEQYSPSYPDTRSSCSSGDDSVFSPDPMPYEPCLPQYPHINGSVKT
Outline: as §1

FGFR3 = FGFR3 (Homo sapiens (Human), UniProt P22607)
FGFR3, sequence (P22607 23-806): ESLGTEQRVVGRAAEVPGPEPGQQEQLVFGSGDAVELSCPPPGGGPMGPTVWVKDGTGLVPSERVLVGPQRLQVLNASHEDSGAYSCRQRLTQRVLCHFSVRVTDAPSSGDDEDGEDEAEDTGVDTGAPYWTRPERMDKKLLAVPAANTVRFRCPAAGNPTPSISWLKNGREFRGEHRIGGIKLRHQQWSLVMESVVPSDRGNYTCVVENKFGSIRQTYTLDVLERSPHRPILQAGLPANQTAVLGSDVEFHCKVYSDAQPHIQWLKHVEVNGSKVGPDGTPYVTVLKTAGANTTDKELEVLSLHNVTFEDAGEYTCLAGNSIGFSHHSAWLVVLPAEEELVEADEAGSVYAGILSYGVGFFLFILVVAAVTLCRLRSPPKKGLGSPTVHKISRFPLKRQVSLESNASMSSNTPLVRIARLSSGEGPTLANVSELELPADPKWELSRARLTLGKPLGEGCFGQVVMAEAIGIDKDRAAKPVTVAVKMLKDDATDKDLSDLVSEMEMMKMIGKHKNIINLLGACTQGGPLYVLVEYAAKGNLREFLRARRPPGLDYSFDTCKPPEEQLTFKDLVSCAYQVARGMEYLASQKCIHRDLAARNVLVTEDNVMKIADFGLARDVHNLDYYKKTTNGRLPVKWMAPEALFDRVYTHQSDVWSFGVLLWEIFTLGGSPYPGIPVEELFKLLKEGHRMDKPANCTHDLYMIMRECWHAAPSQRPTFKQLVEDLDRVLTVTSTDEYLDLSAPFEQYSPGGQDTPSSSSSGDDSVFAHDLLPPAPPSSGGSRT
Outline: as §1

FGFR3 (V555M) = FGFR3 (V555M) (Homo sapiens (Human), UniProt P22607, V555M); details: V555M mutant
FGFR3 (V555M), sequence (P22607 23-806 V555M): as the sequence (P22607 23-806) above, with V533M counted along it
Outline: as §1

FGFR1, sequence (P11362 22-822): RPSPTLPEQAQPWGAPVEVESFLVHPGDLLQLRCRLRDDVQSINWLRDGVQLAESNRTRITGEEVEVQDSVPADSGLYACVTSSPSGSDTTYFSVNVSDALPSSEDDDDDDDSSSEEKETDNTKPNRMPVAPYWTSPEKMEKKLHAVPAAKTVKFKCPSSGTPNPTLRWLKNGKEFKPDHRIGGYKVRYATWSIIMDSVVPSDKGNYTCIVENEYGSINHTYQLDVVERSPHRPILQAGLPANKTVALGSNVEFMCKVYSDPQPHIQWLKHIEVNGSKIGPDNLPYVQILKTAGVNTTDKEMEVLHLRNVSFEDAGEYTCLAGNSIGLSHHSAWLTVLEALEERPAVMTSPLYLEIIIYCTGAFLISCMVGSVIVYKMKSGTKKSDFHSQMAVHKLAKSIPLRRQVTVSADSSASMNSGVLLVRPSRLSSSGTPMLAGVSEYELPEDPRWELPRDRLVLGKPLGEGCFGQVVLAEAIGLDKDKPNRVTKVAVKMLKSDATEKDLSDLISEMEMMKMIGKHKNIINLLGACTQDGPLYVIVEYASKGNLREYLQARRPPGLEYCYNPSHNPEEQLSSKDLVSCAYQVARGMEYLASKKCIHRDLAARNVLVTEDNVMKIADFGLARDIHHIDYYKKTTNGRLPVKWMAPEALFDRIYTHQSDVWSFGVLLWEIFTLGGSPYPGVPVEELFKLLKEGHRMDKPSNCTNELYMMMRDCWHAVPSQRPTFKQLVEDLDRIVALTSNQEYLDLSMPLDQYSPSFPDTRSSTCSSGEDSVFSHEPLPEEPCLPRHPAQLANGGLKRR

Row | SMILES | Kd (FGFR1) | Kd (FGFR4) | Kd (FGFR2) | Kd (FGFR3) | Kd (FGFR3 (V555M))
1 | C[C@@H](Oc1ccc2[nH]nc(-c3cnc(N4CCOCC4)c(C#N)c3)c2c1)c1c(Cl)cncc1Cl [Example 102, 5-[5-[(1R)-1-(3,5-dichloro-4-pyridyl)ethoxy]-1H-indazol-3-yl]-2-morpholino-pyridine-3-carbonitrile] | 20 to 100 nM | 1 to 20 nM | 20 to 100 nM | 1 to 20 nM | 1 to 20 nM
2 | Cc1ncc(Cl)c([C@@H](C)Oc2ccc3[nH]nc(-c4ccc(N5CC6(CCCO6)C5)nc4)c3c2)c1Cl [Example 226, 2-[5-[5-[(1R)-1-(3,5-dichloro-2-methyl-4-pyridyl)ethoxy]-1H-indazol-3-yl]-2-pyridyl]-5-oxa-2-azaspiro[3.4]octane] | 20 to 100 nM | 20 to 100 nM | 20 to 100 nM | 1 to 20 nM | 1 to 20 nM
3 | CCS(=O)(=O)N1CC2(CN(c3ccc(-c4n[nH]c5ccc(O[C@H](C)c6c(Cl)cnc(C)c6Cl)cc45)cn3)C2)C1 [Example 180, 5-[(1R)-1-(3,5-dichloro-2-methyl-4-pyridyl)ethoxy]-3-[6-(2-ethylsulfonyl-2,6-diazaspiro[3.3]heptan-6-yl)-3-pyridyl]-1H-indazole] | 20 to 100 nM | 20 to 100 nM | 20 to 100 nM | 1 to 20 nM | 1 to 20 nM
4 | COC(=O)N1CC2(C1)CN(c1ccc(-c3n[nH]c4ccc(O[C@H](C)c5c(C)cnnc5C)cc34)cn1)C2 [Example 150, methyl 6-[5-[5-[(1R)-1-(3,5-dimethylpyridazin-4-yl)ethoxy]-1H-indazol-3-yl]-2-pyridyl]-2,6-diazaspiro[3.3]heptane-2-carboxylate] | 1 to 20 nM | 1 to 20 nM | 1 to 20 nM | 1 to 20 nM | 1 to 20 nM
5 | COc1cc2[nH]nc(-c3cnc(N4CC(C)(C)C4)c(S(C)(=O)=O)c3)c2cc1O[C@H](C)c1c(Cl)cncc1Cl [Example 376, (R)-5-(1-(3,5-dichloropyridin-4-yl)ethoxy)-3-(6-(3,3-dimethylazetidin-1-yl)-5-(methylsulfonyl)pyridin-3-yl)-6-methoxy-1H-indazole] | > 300 nM | 1 to 20 nM | 100 to 300 nM | 20 to 100 nM | 20 to 100 nM
6 | Cc1cnnc(C)c1[C@@H](C)Oc1ccc2[nH]nc(-c3ccc(N4CC5(COC5)C4)nc3)c2c1 [Example 205, 6-[5-[5-[(1R)-1-(3,5-dimethylpyridazin-4-yl)ethoxy]-1H-indazol-3-yl]-2-pyridyl]-2-oxa-6-azaspiro[3.3]heptane] | 1 to 20 nM | 1 to 20 nM | 1 to 20 nM | 1 to 20 nM | 1 to 20 nM
7 | C[C@@H](Oc1ccc2[nH]nc(-c3ccc(C4CCNCC4)nc3)c2c1)c1c(Cl)cncc1Cl [Example 69, 5-[(1R)-1-(3,5-dichloro-4-pyridyl)ethoxy]-3-[6-(4-piperidyl)-3-pyridyl]-1H-indazole] | 1 to 20 nM | 1 to 20 nM | 1 to 20 nM | 1 to 20 nM | 1 to 20 nM
8 | Cc1cc(-c2n[nH]c3ccc(O[C@H](C)c4c(Cl)cncc4Cl)cc23)cnc1N1CCOCC1 [Example 101, 4-[5-[5-[(1R)-1-(3,5-dichloro-4-pyridyl)ethoxy]-1H-indazol-3-yl]-3-methyl-2-pyridyl]morpholine] | 20 to 100 nM | 1 to 20 nM | 20 to 100 nM | 1 to 20 nM | 1 to 20 nM
9 | C[C@@H](Oc1ccc2[nH]nc(-c3cnn(C4CNC4)c3)c2c1)c1c(Cl)cncc1Cl [Example 85, 3-[1-(azetidin-3-yl)pyrazol-4-yl]-5-[(1R)-1-(3,5-dichloro-4-pyridyl)ethoxy]-1H-indazole] | 1 to 20 nM | 1 to 20 nM | 1 to 20 nM | 1 to 20 nM | 1 to 20 nM
10 | Cc1cc2[nH]nc(-c3cnc(N4CC5(C4)CN(S(C)(=O)=O)C5)c(C#N)c3)c2cc1O[C@H](C)c1c(Cl)cncc1Cl [Example 352, (R)-5-(5-(1-(3,5-dichloropyridin-4-yl)ethoxy)-6-methyl-1H-indazol-3-yl)-2-(6-(methylsulfonyl)-2,6-diazaspiro[3.3]heptan-2-yl)nicotinonitrile] | 20 to 100 nM | 1 to 20 nM | 100 to 300 nM | 1 to 20 nM | 1 to 20 nM
11 | COc1cc(-c2n[nH]c3ccc(O[C@H](C)c4c(Cl)cncc4Cl)cc23)cnc1N1CC2(C1)CN(S(C)(=O)=O)C2 [Example 344, (R)-5-(1-(3,5-dichloropyridin-4-yl)ethoxy)-3-(5-methoxy-6-(6-(methylsulfonyl)-2,6-diazaspiro[3.3]heptan-2-yl)pyridin-3-yl)-1H-indazole] | > 300 nM | 1 to 20 nM | > 300 nM | 100 to 300 nM | 20 to 100 nM
12 | COc1cc2[nH]nc(-c3cnc(N4CC(O)C4)c(C#N)c3)c2cc1O[C@H](C)c1c(Cl)cncc1Cl [Example 326, 5-[5-[(1R)-1-(3,5-dichloro-4-pyridyl)ethoxy]-6-methoxy-1H-indazol-3-yl]-2-(3-hydroxyazetidin-1-yl)pyridine-3-carbonitrile] | 20 to 100 nM | 1 to 20 nM | 20 to 100 nM | 1 to 20 nM | 1 to 20 nM
13 | C[C@@H](Oc1cc2c(-c3ccc(N4CC5(C4)CN(S(C)(=O)=O)C5)nc3)n[nH]c2cc1F)c1c(Cl)cnnc1Cl [Example 262, (R)-5-(1-(3,5-dichloropyridazin-4-yl)ethoxy)-6-fluoro-3-(6-(6-(methylsulfonyl)-2,6-diazaspiro[3.3]heptan-2-yl)pyridin-3-yl)-1H-indazole] | 1 to 20 nM | 1 to 20 nM | 1 to 20 nM | 1 to 20 nM | 1 to 20 nM
14 | C[C@@H](Oc1ccc2[nH]nc(-c3cnc(N4CC[C@@H](O)C4)c(C#N)c3)c2c1)c1c(Cl)cncc1Cl [Example 297, 5-[5-[(1R)-1-(3,5-dichloro-4-pyridyl)ethoxy]-1H-indazol-3-yl]-2-[(3R)-3-hydroxypyrrolidin-1-yl]pyridine-3-carbonitrile] | 20 to 100 nM | 1 to 20 nM | 100 to 300 nM | 1 to 20 nM | 1 to 20 nM
15 | COc1cc2[nH]nc(-c3ccc(N4CC(O)C4)nc3)c2cc1O[C@H](C)c1c(Cl)cnc(C)c1Cl [Example 208, 1-[5-[5-[(1R)-1-(3,5-dichloro-2-methyl-4-pyridyl)ethoxy]-6-methoxy-1H-indazol-3-yl]-2-pyridyl]azetidin-3-ol] | 20 to 100 nM | 1 to 20 nM | 1 to 20 nM | 1 to 20 nM | 1 to 20 nM
16 | COc1cc2[nH]nc(-c3cnc(N4CCC4)c(S(C)(=O)=O)c3)c2cc1O[C@H](C)c1c(Cl)cncc1Cl [Example 367, (R)-3-(6-(azetidin-1-yl)-5-(methylsulfonyl)pyridin-3-yl)-5-(1-(3,5-dichloropyridin-4-yl)ethoxy)-6-methoxy-1H-indazole] | > 300 nM | 20 to 100 nM | > 300 nM | 100 to 300 nM | 20 to 100 nM
17 | Cc1cnnc(C)c1[C@@H](C)Oc1ccc2[nH]nc(-c3cnc(N4CCC[C@@H]4CO)c(C#N)c3)c2c1 [Example 335, 5-(5-((R)-1-(3,5-dimethylpyridazin-4-yl)ethoxy)-1H-indazol-3-yl)-2-((R)-2-(hydroxymethyl)pyrrolidin-1-yl)nicotinonitrile] | 1 to 20 nM | 1 to 20 nM | 20 to 100 nM | 1 to 20 nM | 1 to 20 nM
18 | Cc1cnnc(C)c1[C@@H](C)Oc1ccc2[nH]nc(-c3ccc(N4CCN5C[C@H](O)C[C@H]5C4)nc3)c2c1 [Example 176, (7R,8aS)-2-[5-[5-[(1R)-1-(3,5-dimethylpyridazin-4-yl)ethoxy]-1H-indazol-3-yl]-2-pyridyl]-3,4,6,7,8,8a-hexahydro-1H-pyrrolo[1,2-a]pyrazin-7-ol] | 1 to 20 nM | 1 to 20 nM | 1 to 20 nM | 1 to 20 nM | 1 to 20 nM
19 | C[C@@H](Oc1ccc2[nH]nc(-c3ccc(N4CC5(CN(CC(F)(F)F)C5)C4)nc3)c2c1)c1c(Cl)cncc1Cl [Example 224, (R)-5-(1-(3,5-dichloropyridin-4-yl)ethoxy)-3-(6-(6-(2,2,2-trifluoroethyl)-2,6-diazaspiro[3.3]heptan-2-yl)pyridin-3-yl)-1H-indazole] | 1 to 20 nM | 1 to 20 nM | 20 to 100 nM | 1 to 20 nM | 1 to 20 nM
20 | C[C@@H](Oc1ccc2[nH]nc(-c3cnc(N4CCC4CN(C)C)c(C#N)c3)c2c1)c1c(Cl)cncc1Cl (stereo partly drawn) [Example 363, 5-(5-((R)-1-(3,5-dichloropyridin-4-yl)ethoxy)-1H-indazol-3-yl)-2-(2-((dimethylamino)methyl)azetidin-1-yl)nicotinonitrile] | > 300 nM | > 300 nM | > 300 nM | > 300 nM | > 300 nM
21 | Cc1cc2[nH]nc(-c3ccc(N4CC5(C4)CN(S(C)(=O)=O)C5)nc3)c2cc1O[C@H](C)c1c(Cl)cncc1Cl [Example 251, (R)-5-(1-(3,5-dichloropyridin-4-yl)ethoxy)-6-methyl-3-(6-(6-(methylsulfonyl)-2,6-diazaspiro[3.3]heptan-2-yl)pyridin-3-yl)-1H-indazole] | 1 to 20 nM | 1 to 20 nM | 1 to 20 nM | 1 to 20 nM | 1 to 20 nM
22 | C[C@@H](Oc1ccc2[nH]nc(-c3cnn(C4CCN(S(C)(=O)=O)CC4)c3)c2c1)c1c(Cl)cncc1Cl [Example 66, 5-[(1R)-1-(3,5-dichloro-4-pyridyl)ethoxy]-3-[1-(1-methylsulfonyl-4-piperidyl)pyrazol-4-yl]-1H-indazole] | 1 to 20 nM | 1 to 20 nM | 1 to 20 nM | 1 to 20 nM | 1 to 20 nM
